Values of other authors in patent publication US20220133758A1, “TREATMENT OF INFLAMMATORY BOWEL DISEASES WITH 2'-FUCOSYLLACTOSE COMPOUNDS” (CHILDREN'S HOSPITAL MEDICAL CENTER, priority 2017, published 2022).

Tests used:
[1] = infliximab or adalimumab anti-TNF therapy, despite optimal therapeutic drug monitoring and dosing
[2] = test system: EC genes regulating butyrate transport, signaling, and mitochondrial oxidation; conditions: IBD patients who experience mucosal healing

Row | Substance | patients relapsed [1] [%] | inflammatory suppression of EC genes regulating butyrate transport, signaling, and mitochondrial oxidation [2] | Bifidobacterium abundance (fecal Bifidobacterium; pediatric CD study) | correction of dysbiosis (fecal Bifidobacterium; suppression of mucosal inflammation)
1 | adalimumab | 37 | – | – | –
2 | infliximab: monoclonal anti-TNF antibody | 37 | largely corrected | not associated with increased Bifidobacterium abundance | only partially corrects
